The subject of experiment [1] is BL21(DE3)ung-151 E. coli cells. In words: Uracil content of E. coli genomial DNA by real-time PCR with Pfu WT-pol and Pfu V93Q-pol. It is filed as cell-based, Escherichia coli. The conditions noted are these: early log phase (OD600=0.5), mean ± SEM, untreated 537±37. The procedure:
Escherichia coli genomial DNA. XL1-blue, BL21(DE3)ung-151 and CJ236 E. coli strains were propagated in LB media at 37° C. and were harvested at the early log phase (OD600=0.5) or at saturated phase (overnight culture). BL21(DE3)ung-151 cells grown in the presence of 30.7 or 61.3 μM 5-fluoro-2′-deoxyuridine (5FdUR) (Sigma-Aldrich) were harvested at the early log phase. Genomial DNA was purified by MasterPure DNA Purification Kit (Epicentre) following the instructions of the manufacturer. The DNA was digested by NdeI restriction enzyme (New England Biolabs) and was separated on 1% agarose gel. […]
(§1) Synthetic and physiological samples purified from agarose gels were applied in series of either 2-fold or 10-fold dilution steps. […] Melting point of the products was measured after a final denaturation at 95° C. for 1 min by heating from 55° C. to 95° C. […] Non-template control was measured in all cases. […] Cq values were determined after the manual setting of threshold level in the early exponential phase of the PCR amplification. […] Efficiency was calculated from the following equation: E=10^(−1/M)−1, where M is the slope of the linear curve and E is the efficiency. […] At each measured CqWt value the shift between the linear curves of the reference and the putatively uracil containing samples was determined. […]

The subject of a further experiment is wild type MEF cells. In words: Viability assay of MEF cells (AlamarBlue). It counts as cell-based, mouse. The conditions noted are these: 0-1000 nM 5FdUR, 4 days, AlamarBlue fluorescence normalized to untreated. As to the method:
(§2) Wild type and ung^(−/−) MEF cells were seeded onto 96-well plates in DMEM+F12 HAM Mix (Sigma) supplemented with 10% Fetal Bovine Serum (Gibco), 1% Penicillin+Streptomycin (Gibco), 0.5 mM Sodium Pyruvate (Gibco), 1% 100× Non-Essential Amino Acids (Gibco). 2000 cells were seeded in a well containing 100 μl medium. After 4 days 10 μl AlamarBlue (Biosource) was added, incubated for 3 hours at 37° C. and fluorescence was measured by Victor2 140 Multilabel counter at 485 nm excitation and 530 nm emission. Samples in triplicates were treated with different concentration of 5FdUR (0, 1, 10, 20, 50, 100, 250, 500, 1000 nM) and viability was assessed. Measurements were repeated three-times. Fluorescence intensity values measured from the wells was normalized to the intensity detected in samples grown in lack of 5FdUR.

For another experiment, the system named is ung−/− MEF cells. In words: Viability assay of MEF cells (AlamarBlue). It counts as cell-based, mouse. The following applies: 0-1000 nM 5FdUR, 4 days, AlamarBlue fluorescence normalized to untreated. The procedure: as §2
For orientation: The colour change of resazurin is a common sign of viable cells or microbes.

In experiment [2] the test system is ung−/− mouse embryonic fibroblast (MEF) cells. In words: Uracil content of MEF genomial DNA by real-time PCR with Pfu WT-pol and Pfu V93Q-pol. It is filed as cell-based. The following applies: 100 μM 5FdUR, 4 days, mean ± SEM. The procedure: (§3) Mouse Embryonic Fibroblast (MEF) genomial DNA. Wild type and ung^(−/−) MEF cells (34) were a generous gift from Dr. Hilde Nilsen, University of Oslo. MEF cells were cultured in DMEM+F12 HAM Mix (Sigma) supplemented with 10% Fetal Bovine Serum (Gibco), 1% Penicillin+Streptomycin (Gibco), 0.5 mM Sodium Pyruvate (Gibco), 1% 100× Non-Essential Amino Acids (Gibco). To obtain confluent cells 10^6 cells/T-75 flask were seeded. […] Genomial DNA was purified by MasterPure DNA Purification Kit (Epicentre). DNA was digested by EcoRI restriction enzyme (New England Biolabs) and separated on 1% agarose gel. […]
as §1
(In general: Real-time PCR tracks product formation cycle by cycle.)

In experiment [3] the test system is wild-type mouse embryonic fibroblast (MEF) cells. Described as above. It is filed as cell-based. The following applies: 100 μM 5FdUR, 4 days, mean ± SEM, practically undetectable. As to the method: as §3, §1

With `O=c1[nH]c(=O)n([C@H]2C[C@H](O)[C@@H](CO)O2)cc1F` [5FdUR, 5-fluoro-2′-deoxyuridine], the “uracil content of genomial DNA” value in experiment [1] (30.7 μM 5FdUR) amounted to 653±55 deoxyuridine/million dNMP; in experiment [1] (61.3 μM 5FdUR) it was 770±54 deoxyuridine/million dNMP; in experiment [2], 341±87 deoxyuridine/million dNMP; in experiment [3], 40±38 deoxyuridine/million dNMP. Further, the viability result in the experiment with wild type MEF cells and with ung−/− MEF cells was “significant decrease in viability” each time.

The record behind these values is patent publication US20130071848A1 (priority 2011, published 2013).
